Like-named read-outs stand apart in the source and are kept apart here.
Experiments:
[1] = test system: cervical carcinoma cell lines; assay: Cell based assay, cell viability (CellTiter-Glo), cervical carcinoma cell lines; details: Homo sapiens; HeLa cells
Description: (§1) Commercially available bladder cancer, prostate cancer, lung cancer, breast cancer, blood cancer, pancreatic cancer, colorectal cancer, brain cancer, neuroblastoma, melanoma, liver cancer, cervical carcinoma, ovarian cancer, renal cancer, and papilloma cell lines were each treated with trypsin-EDTA and cultured, followed by being seeded in each well of a 96 well plate. […] The treated cells were additionally cultured for 72 hours, and cell viability was measured by using an ATP detection method (CellTiter-Glo® Luminescent Cell Viability Assay, Promega).

[2] = test system: blood cancer cell lines (e.g. HL-60, Jurkat, Raji, Ramos, Daudi, MOLT-4); assay: Cell based assay, cell viability (CellTiter-Glo), blood cancer cell lines; details: Homo sapiens
Description: Commercially available bladder cancer, prostate cancer, lung cancer, breast cancer, blood cancer, pancreatic cancer, colorectal cancer, brain cancer, neuroblastoma, melanoma, liver cancer, cervical carcinoma, ovarian cancer, renal cancer, and papilloma cell lines were each treated with trypsin-EDTA and cultured, followed by being seeded in each well of a 96 well plate. After 24 hours of treatment at constant temperature, the respective cells were treated with the candidate compound so that a final concentration became 0 to 2 μM. The treated cells were additionally cultured for 72 hours, and cell viability was measured by using an ATP detection method (CellTiter-Glo® Luminescent Cell Viability Assay, Promega).

[3] = test system: RT4: human urinary bladder transitional cell papilloma; assay: Cell based assay, cytotoxicity in RT4 papilloma cells (selectivity); details: Homo sapiens, RT-4; RT4 cells
Description: as §1

brain cancer cell lines = assay: Cell based assay, cell viability (CellTiter-Glo), brain cancer cell lines; details: Homo sapiens
Description: as §1

[4] = MV4-11, blood cancer cell line MV-4-11, 72 hours, read-out: IC50, MV-4-11
[5] = blood cancer cell line Daudi, 72 hours, read-out: IC50, Daudi
[6] = blood cancer cell line HL-60, 72 hours, read-out: IC50, HL-60
[7] = blood cancer cell line Jurkat, 72 hours, read-out: IC50, Jurkat
[8] = blood cancer cell line MOLT-4, 72 hours, read-out: IC50, MOLT-4
[9] = blood cancer cell line Raji, 72 hours, read-out: IC50, Raji
[10] = blood cancer cell line Ramos (RA 1), 72 hours, read-out: IC50, Ramos (RA 1)
[11] = blood cancer cell line U-937, 72 hours, read-out: IC50, U-937
[12] = U138-MG, U-138 MG cell line, read-out: IC50, Brain cancer cell line U-138 MG
[13] = T98G cell line, read-out: IC50, Brain cancer cell line T98G
[14] = U-251 MG cell line, read-out: IC50, Brain cancer cell line U-251 MG

| Structure (SMILES) | IC50 [1] | IC50 [2, 4] | IC50 [2, 5] | IC50 [2, 6] | IC50 [2, 7] | IC50 [2, 8] | IC50 [2, 9] | IC50 [2, 10] | IC50 [2, 11] | IC50 [3] | IC50 (brain cancer cell lines; [12]) | IC50 (brain cancer cell lines; [13]) | IC50 (brain cancer cell lines; [14]) |
| --- | --- | --- | --- | --- | --- | --- | --- | --- | --- | --- | --- | --- | --- |
| CSc1c(C(C)=O)c(=O)c2c(Cl)ccc(Br)c2n1S(=O)(=O)c1ccc([N+](=O)[O-])cc1 [Compound 38, 3-acetyl-8-bromo-5-chloro-2-(methylthio)-1-((4-nitrophenyl)sulfonyl)quinolin-4(1H)-one] | > 10 µM | > 2 µM | > 2 µM | > 2 µM | > 2 µM | > 2 µM | > 2 µM | > 2 µM | > 2 µM | > 10 µM | > 10 µM | > 10 µM | > 2 µM |
| CC(=O)c1c([S+]([O-])Cc2ccc(C(=O)c3ccccc3)cc2)[nH]c2c(Br)ccc(Cl)c2c1=O (centres unmarked) [Compound 63, 3-acetyl-2-((4-benzoylbenzyl)sulfinyl)-8-bromo-5-chloroquinolin-4(1H)-one] | > 10 µM | > 2 µM | > 2 µM | > 2 µM | > 2 µM | > 2 µM | > 2 µM | > 2 µM | > 2 µM | > 10 µM | > 2 µM | > 10 µM | > 2 µM |
| CC(=O)c1c(SCc2ccccc2)[nH]c2c(Br)ccc(Cl)c2c1=O [Compound 3, 3-acetyl-2-(benzylthio)-8-bromo-5-chloroquinolin-4(1H)-one] | > 10 µM | > 2 µM | > 2 µM | > 2 µM | > 2 µM | > 2 µM | > 2 µM | > 2 µM | > 2 µM | > 10 µM | > 10 µM | > 10 µM | > 2 µM |
| CC(=O)c1c([S+]([O-])C(C)c2ccccc2)[nH]c2c(Br)ccc(Cl)c2c1=O (centres unmarked) [Compound 26, 3-acetyl-8-bromo-5-chloro-2-((1-phenylethyl)sulfinyl)quinolin-4(1H)-one] | > 10 µM | > 2 µM | > 2 µM | > 2 µM | 1.79 µM | 1.74 µM | > 2 µM | > 2 µM | > 2 µM | > 10 µM | > 2 µM | > 2 µM | > 2 µM |
| CC(=O)c1c(SCc2ccc([N+](=O)[O-])cc2)[nH]c2c(Br)ccc(Cl)c2c1=O [Compound 32, 3-acetyl-8-bromo-5-chloro-2-((4-nitrobenzyl)thio)quinolin-4(1H)-one] | > 10 µM | > 2 µM | > 2 µM | > 2 µM | > 2 µM | > 2 µM | > 2 µM | > 2 µM | > 2 µM | > 10 µM | > 10 µM | > 10 µM | > 2 µM |
| CC(=O)c1c(SC(C)C)[nH]c2c(Br)ccc(Cl)c2c1=O [Compound 24, 3-acetyl-8-bromo-5-chloro-2-(isopropylthio)quinolin-4(1H)-one] | > 10 µM | > 2 µM | > 2 µM | > 2 µM | > 2 µM | > 2 µM | > 2 µM | > 2 µM | > 2 µM | > 10 µM | > 10 µM | > 10 µM | > 2 µM |
| CC(=O)c1c(SCc2ccccc2)n(C(=O)c2ccc(Br)cc2)c2c(Br)ccc(Cl)c2c1=O [Compound 23, 3-acetyl-2-(benzylthio)-8-bromo-1-(4-bromobenzoyl)-5-chloroquinolin-4(1H)-one] | > 10 µM | > 2 µM | > 2 µM | > 2 µM | > 2 µM | > 2 µM | > 2 µM | > 2 µM | > 2 µM | > 10 µM | > 10 µM | > 10 µM | > 2 µM |
| COCCNc1ccc(C[S+]([O-])c2[nH]c3c(Br)ccc(Cl)c3c(=O)c2C(C)=O)cn1 (centres unmarked) [Compound 105, 3-acetyl-8-bromo-5-chloro-2-(((6-((2-methoxyethyl)amino)pyridin-3-yl)methyl)sulfinyl)quinolin-4(1H)-one] | > 2 µM | > 2 µM | > 2 µM | > 2 µM | > 2 µM | > 2 µM | > 2 µM | > 2 µM | > 2 µM | > 10 µM | > 10 µM | > 10 µM | > 2 µM |
| CC(=O)c1c([S+]([O-])Cc2ccc(S(F)(F)(F)(F)F)cc2)[nH]c2c(Br)ccc(Cl)c2c1=O (centres unmarked) [Compound 68, 3-acetyl-8-bromo-5-chloro-2-((4-(pentafluoro-16-sulfanyl)benzyl)sulfinyl)quinolin-4(1H)-one] | > 2 µM | 1.3 µM | 1.21 µM | 1.71 µM | 1 µM | 1.07 µM | 1.02 µM | 1.66 µM | > 2 µM | > 10 µM | 1.14 µM | > 2 µM | 0.93 µM |
| CSc1[nH]c2ccc(F)cc2c(=O)c1C(C)=O [Compound 8, 1-(6-fluoro-4-hydroxy-2-(methylthio)quinolin-3-yl)ethan-1-one] | > 10 µM | > 2 µM | > 2 µM | > 2 µM | > 2 µM | > 2 µM | > 2 µM | > 2 µM | > 2 µM | > 10 µM | > 10 µM | > 10 µM | > 2 µM |
| CC(=O)c1c([S+]([O-])Cc2cccc(S(F)(F)(F)(F)F)c2)[nH]c2c(Br)ccc(Cl)c2c1=O (centres unmarked) [Compound 77, 3-acetyl-8-bromo-5-chloro-2-((3-(pentafluoro--sulfanyl)benzyl)sulfinyl)quinolin-4(1H)-one] | > 10 µM | > 2 µM | 1.42 µM | > 2 µM | 1.12 µM | 1.35 µM | 1.33 µM | > 2 µM | > 2 µM | > 10 µM | 1.55 µM | > 2 µM | 1.29 µM |
| CC(=O)c1c([S+]([O-])Cc2ccc(SC(F)(F)F)cc2)[nH]c2c(Cl)ccc(Cl)c2c1=O (centres unmarked) [Compound 79, 3-acetyl-5,8-dichloro-2-((4-((trifluoromethyl)thio)benzyl)sulfinyl)quinolin-4(1H)-one] | > 10 µM | > 2 µM | > 2 µM | > 2 µM | > 2 µM | > 2 µM | > 2 µM | > 2 µM | > 2 µM | > 10 µM | > 10 µM | > 10 µM | > 2 µM |
| CC(=O)c1c(SCc2cc(F)cc(F)c2)[nH]c2c(Br)ccc(Cl)c2c1=O [Compound 45, 3-acetyl-8-bromo-5-chloro-2-((3,5-difluorobenzyl)thio)quinolin-4(1H)-one] | > 10 µM | > 2 µM | > 2 µM | > 2 µM | > 2 µM | > 2 µM | > 2 µM | > 2 µM | > 2 µM | > 10 µM | > 10 µM | > 10 µM | > 2 µM |
| CC(=O)c1c([S+]([O-])c2ccc(Br)cc2)[nH]c2c(Br)ccc(Cl)c2c1=O (centres unmarked) [Compound 17, 3-acetyl-8-bromo-2-((4-bromophenyl)sulfinyl)-5-chloroquinolin-4(1H)-one] | > 10 µM | > 2 µM | > 2 µM | > 2 µM | > 2 µM | > 2 µM | > 2 µM | > 2 µM | > 2 µM | > 10 µM | > 10 µM | > 10 µM | > 2 µM |

From patent US11464770B2, “Anticancer pharmaceutical composition” (NATIONAL CANCER CENTER, priority 2016, dated 2022)
